Experimental data published in patent US4086416A, “Septacidin analogs” (Stanford Research Institute, priority 1977, dated 1978).
Entries after “also recorded” stand apart in the source; their conditions may differ. Where two headings read alike, the source gives them in different places.

Legend:
[1] = tested on: cultured lymphoid leukemia L1210 cells; assay: inhibition of DNA synthesis in cultured L1210 leukemia cells; assay type: cell-based
Description: (§1) The septacidin analogs 2 and 3 (corresponding to the compounds of Examples I and II, respectively) were tested first in cultured lymphoid leukemia L1210 cells for inhibition of nucleic acid syntheses and for cytotoxicity,by previously reported procedures. A sample of natural septacidin (compound 1) was obtained from the National Cancer Institute and included for comparison. Data on adriamycin (compound 4) are also included. The analogs were then tested, along with 1 and 4, against lymphocytic leukemia P388 implanted in mice, under the auspices of the NCI and according to its protocols which use the increased survival time of treated animals compared to controls as the measure of antitumor efficacy.
(§2) ^b Assay described in G. Tong, W. W. Lee, D. R. Black and D. W. Henry

[2] = tested on: cultured lymphoid leukemia L1210 cells; assay: cytotoxicity vs cultured L1210 leukemia cells; assay type: cell-based; details: for IC50: cultured L1210 leukemia cells, read-out: Cytotoxicity I50
Description: as §1, §2

[3] = tested on: cultured lymphoid leukemia L1210 cells; assay: inhibition of RNA synthesis in cultured L1210 leukemia cells; assay type: cell-based
Description: as §1, §2

[4] = tested on: cultured lymphoid leukemia L1210 cells; assay: in vitro activity in cultured L1210 cells (inhibition of nucleic acid syntheses); assay type: cell-based
Description: as §1, §2

solubility = assay type: physicochemical
[5] = tested on: lymphocytic leukemia P388 implanted in mice; assay: antitumor efficacy vs P388 leukemia in mice (increased survival time); assay type: in vivo; details: for antitumor activity in mouse tests: NCI criteria, doses of 0.5-1.0 mg/kg; for Optimum Antitumor Efficacy, T/C / Optimum Antitumor Dose: P388 leukemia in mice; for Optimum Antitumor Efficacy, T/C: at optimum dose (septacidin 0.50, compounds 2 and 3 1.0 mg/kg), compounds 2 and 3 average from two tests; for Optimum Antitumor Dose: dose producing the highest T/C
Description: as §1
^c Assay described in R. I. Geran, N. H. Greenberg, M. M. MacDonald,
A. M. Schumacker and B. J. Abbott, Cancer Chemother. Rep., Part 3, 3 (No.
2), 9 (1972). Protocol 1.200. Other doses were higher or lower by a facto
of 2. Each compound has 2-4 active doses. Compounds were of borderline
solubility, and some doses were injection as suspensions. Water, water +
Tween 80, or saline + Tween 80 (emul. agent, ICI) were used as vehicles.
By definition, a compound is active if T/C […] 125. For compounds 2
and 3 the T/C is the average from two tests. Optimum dose is the one
producing the highest T/C.

isolated helical DNA [6] = assay: binding to isolated helical DNA in solution (effect on helix-coil transition temperature)
Text: The in vivo efficacy of adriamycin is much higher, but there are other differences.
as §2
by the modified procedure.

[7] = antitumor activity (test not specified)
[8] = tested on: cultured lymphoid leukemia L1210 cells; details: data from Tong et al. 1976, read-out: Inhibition of Synthesis of DNA, ED50; cited from earlier work
[9] = tested on: lymphocytic leukemia P388 implanted in mice; details: cited from earlier work
isolated helical DNA [10] = details: cited from earlier work
[11] = tested on: cultured lymphoid leukemia L1210 cells; details: data from Tong et al. 1976, read-out: Inhibition of Synthesis of RNA, ED50; cited from earlier work
[12] = tested on: cultured lymphoid leukemia L1210 cells; details: cited from earlier work
[13] = Mus musculus, cultured L1210 leukemia cells, read-out: Inhibition of Synthesis of DNA, ED50
[14] = Mus musculus, cultured L1210 leukemia cells, read-out: Inhibition of Synthesis of RNA, ED50
[15] = in vitro, compared with septacidin (1)

Question: For `CCCCCCCCCCCC(=O)NCC(=O)N[C@@H]1[C@@H](O)[C@H](O)[C@@H](Nc2ncnc3[nH]cnc23)O[C@H]1C` [Compound 3, 6-[4,6-Dideoxy-4-(lauroylglycyl)amino-β-L-glucopyranosylamino]-9H-purine], which IC50 [1, 13] is on record?
Answer: 29000 nM

Question: What about the IC50 ([2]; Mus musculus) of the same compound?
Answer: > 10 µM

Question: What about the IC50 [3, 14] of the same compound?
Answer: 18000 nM

Question: What about the “in vitro activity” value ([4]; compared with septacidin (1) or analog 2) of the same compound?
Answer: noticeably less potent; also recorded: decreased activity in vitro

Question: What about the “solubility in CH3OH” value (solubility) of the same compound?
Answer: moderately soluble

Question: And the “solubility in H2O or saline” value (solubility)?
Answer: slightly soluble

Question: What about the “antitumor activity in mouse tests” value ([5]; P388 in mice) of the same compound?
Answer: confirmed activity

Question: And the “Optimum Antitumor Efficacy, T/C” value ([5]; qd 1-9)?
Answer: 137%

Question: What about the “Optimum Antitumor Dose” value ([5]; qd 1-9) of the same compound?
Answer: 1.0 mg/kg

Question: What about the “efficacy in vivo” value ([5]; fatty acid shortened from 16 to 12 carbons, compared with 2) of the same compound?
Answer: slight loss of efficacy in vivo

Question: With `CC(C)CCCCCCCCCCCCC(=O)NCC(=O)NC1C(C)OC(Nc2ncnc3[nH]cnc23)C(O)C1O` [Compound 2, 6-[4,6-Dideoxy-4-(isopalmitoylglycyl)amino-β-L-glucopyranosylamino]-9H-purine] as the compound, how does the IC50 [1, 13] read?
Answer: 2600 nM

Question: And the “potency in the DNA test” value [1, 15]?
Answer: not as potent

Question: What about the IC50 ([2]; Mus musculus) of the same compound?
Answer: > 20 µM

Question: And the “cytotoxic effects” value ([2]; at soluble levels)?
Answer: could not be observed at soluble levels

Question: What about the “Binding to Isolated Helical DNA in Solution, ΔTm” value (isolated helical DNA [6]) of the same compound?
Answer: 0.6 °C

Question: And the “binding to isolated helical DNA in solution” value (isolated helical DNA [6]; ΔTm)?
Answer: binds only weakly

Question: And the IC50 [3, 14]?
Answer: 880 nM

Question: What about the “response in the RNA test” value [3, 15] of the same compound?
Answer: a response nearly the same as 1

Question: What about the “antitumor activity” value [7] of the same compound?
Answer: enhanced antitumor activity

Question: And the “potency compared with adriamycin” value ([7]; comparison of both in vivo and in vitro data)?
Answer: comparable in potency

Question: And the “inhibition of nucleic acid synthesis” value [4]?
Answer: potent inhibition of nucleic acid synthesis

Question: What about the “solubility in CH3OH” value (solubility) of the same compound?
Answer: moderately soluble

Question: And the “solubility in H2O or saline” value (solubility)?
Answer: slightly soluble

Question: And the “antitumor activity in mouse tests” value ([5]; P388 in mice)?
Answer: confirmed activity

Question: What about the “Optimum Antitumor Efficacy, T/C” value ([5]; qd 1-9) of the same compound?
Answer: 160%

Question: And the “Optimum Antitumor Dose” value ([5]; qd 1-9)?
Answer: 1.0 mg/kg

Question: Which results are given for `COc1cccc2c1C(=O)c1c(O)c3c(c(O)c1C2=O)C[C@@](O)(C(=O)CO)C[C@@H]3O[C@H]1C[C@H](N)[C@H](O)[C@H](C)O1` [Adriamycin]?
Answer: IC50 [8]: 1500 nM; Optimum Antitumor Efficacy, T/C ([9]; P388 leukemia in mice, at 1.0 mg/kg, qd 1-9, data from Tong et al. 1976): 193%; Optimum Antitumor Dose ([9]; P388 leukemia in mice, qd 1-9, data from Tong et al. 1976): 1.0 mg/kg; in vivo efficacy ([9]; adriamycin compared with 2): much higher; Binding to Isolated Helical DNA in Solution, ΔTm (isolated helical DNA [10]; modified procedure, data from Tong et al. 1976): 13.6 °C; binding to isolated helical DNA in solution (isolated helical DNA [10]; ΔTm): binds strongly; IC50 [11]: 670 nM; cytotoxicity [12]: highly cytotoxic; IC50 ([12]; cultured L1210 leukemia cells, data from Tong et al. 1976, read-out: Cytotoxicity I50): 32 nM

Question: Which “antitumor activity” value [7] does the source give for `CCCCCC(=O)NCC(=O)NC1C(C)OC(Nc2ncnc3[nH]cnc23)C(O)C1O` [Example VI, 6-[4,6-Didoexy-4-(caproylglycyl)amino-β-L-glucopyranosylamino]-9H-purine] here?
Answer: inactive; also recorded: loss of activity was total

Question: Which results are given for `CC(C)CCCCCCCCCCCCC(=O)NCC(=O)NC1C(O)C(O)C(Nc2ncnc3nc[nH]c23)OC1C(O)CO` (stereo not drawn) [Septacidin]?
Answer: IC50 ([1]; cultured L1210 cells, corrected for 75% purity, assuming inactive impurities, read-out: Inhibition of Synthesis of DNA, ED50, corrected for purity): 230 nM; IC50 ([1]; cultured L1210 leukemia cells, read-out: Inhibition of Synthesis of DNA, ED50): 300 nM; IC50 [2]: > 5 µM; IC50 ([3]; cultured L1210 cells, corrected for 75% purity, assuming inactive impurities, read-out: Inhibition of Synthesis of RNA, ED50, corrected for purity): 530 nM; IC50 ([3]; cultured L1210 leukemia cells, read-out: Inhibition of Synthesis of RNA, ED50): 700 nM; Optimum Antitumor Dose, corrected for purity ([5]; P388 in mice, qd 1-9, corrected for 75% purity, assuming inactive impurities): 0.38 mg/kg; antitumor activity in mouse tests ([5]; P388 in mice): high antitumor potency; Optimum Antitumor Efficacy, T/C ([5]; qd 1-9): 154%; Optimum Antitumor Dose ([5]; qd 1-9): 0.50 mg/kg
